Paper PMC549391 (Nucleic Acids Research, 2005)

Target: T1, ribonuclease III (RNase III) (Escherichia coli, UniProt P0A7Y0)
T1 sequence (P0A7Y0 1-226): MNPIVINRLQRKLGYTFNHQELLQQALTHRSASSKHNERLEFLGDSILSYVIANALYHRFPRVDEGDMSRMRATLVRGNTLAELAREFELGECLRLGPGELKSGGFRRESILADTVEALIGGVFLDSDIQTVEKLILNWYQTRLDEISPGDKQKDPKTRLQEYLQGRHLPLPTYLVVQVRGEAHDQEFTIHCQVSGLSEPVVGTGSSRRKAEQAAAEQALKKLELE
Test: cleavage of […]-labeled R1.[…] RNA by purified RNase III, gel assay, […] Mg2+
Type: biochemical

Which IC50 does the source give for `O=C1Cc2ccccc2C(=O)N1O` [compound 1, 2-hydroxy-4H-isoquinoline-1,3-dione] here?
The IC50 was 14 ± 2 µM.
